Where two headings read alike, the source gives them in different places. Values belong to the compound of their own block, whether it stands above or below them.
Tests used:
AHR [1] = molecular target: T1, AHR (UniProt P35869); assay: DRE-Luciferase Reporter Assay (Alternate Method) (Example 1B); format: cell-based, murine or human; details: cell line and AHR activating ligand not specified
T1 construct: IC50
T1 sequence (P35869 1-848): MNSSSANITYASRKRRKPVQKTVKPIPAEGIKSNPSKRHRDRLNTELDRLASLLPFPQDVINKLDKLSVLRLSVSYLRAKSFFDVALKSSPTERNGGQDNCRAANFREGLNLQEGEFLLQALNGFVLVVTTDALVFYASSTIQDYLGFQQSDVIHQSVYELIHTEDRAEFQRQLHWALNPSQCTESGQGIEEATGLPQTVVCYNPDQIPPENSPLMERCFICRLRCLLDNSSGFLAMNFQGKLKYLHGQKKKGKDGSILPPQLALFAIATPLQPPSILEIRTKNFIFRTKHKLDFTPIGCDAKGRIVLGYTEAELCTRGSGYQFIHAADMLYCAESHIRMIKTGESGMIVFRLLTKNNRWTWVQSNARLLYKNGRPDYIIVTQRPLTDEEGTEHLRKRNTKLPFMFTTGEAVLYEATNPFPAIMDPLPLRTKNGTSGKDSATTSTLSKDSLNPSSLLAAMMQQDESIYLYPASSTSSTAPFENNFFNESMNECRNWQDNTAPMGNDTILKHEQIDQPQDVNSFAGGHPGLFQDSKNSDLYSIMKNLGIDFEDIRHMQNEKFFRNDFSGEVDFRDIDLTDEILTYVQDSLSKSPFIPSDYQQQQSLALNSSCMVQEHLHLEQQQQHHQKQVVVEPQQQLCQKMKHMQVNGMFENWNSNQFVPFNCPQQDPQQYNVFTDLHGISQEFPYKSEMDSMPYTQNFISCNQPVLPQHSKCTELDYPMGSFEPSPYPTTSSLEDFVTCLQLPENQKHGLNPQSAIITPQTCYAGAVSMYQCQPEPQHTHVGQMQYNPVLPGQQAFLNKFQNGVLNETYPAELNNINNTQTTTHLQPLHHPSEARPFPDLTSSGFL

AHR [2] = molecular target: T1, AHR; assay: DRE-Luciferase Reporter Assay (Example 1A); format: cell-based, murine or human; details: cell line and AHR activating ligand not specified
Description: AHR binds to Dioxin Responsive Elements (DRE) upstream of genes that it activates. One measure of AHR activity is activation of a reporter gene, such as luciferase, downstream of one or multiple DRE elements. Luciferase activity will reflect activation and inhibition of AHR in the cells expressing his reporter.
Murine Hepa1-6 or Hepa-1c1c7 or other murine cell line with a DRE-luciferase reporter either stably or transiently transfected were plated in media in plates (96-well, 384-well or other plates) and incubated overnight at 37° C. in a CO2 incubator. Likewise, human HepG2 or other human cell line with a DRE-luciferase reporter either stably or transiently transfected were plated in media in plates (96-well, 384-well or other plates) and incubated overnight at 37° C. in a CO2 incubator.
The next day, an AHR activating ligand, such as TCDD, kynurenine, ITE (2-(1H-indole-3-ylcarbonyl)-4-thiazolecarboxylic methyl ester), VAF347, BNF (beta-naphthoflavone), FICZ (6-formylindolo(3,2-b) carbazole or other AHR ligands, was added with or without AHR antagonist.
Cells were incubated for 4, 15 or 24 hours or another time point and then lysed for determination of luciferase activity as a read-out of the AHR activation or inhibition. Luciferase was measured with a commercial kit such as the Promega Luciferase kit or any kit or reagents that provide the luciferin substrate for measuring luciferase activity. The level of luciferase with only activating ligand added was the maximum signal while the luciferase with no ligand was the minimum signal. IC50 values were determined as the concentration which inhibits half of the luciferase activity.

[3] = In Vitro Mouse liver S9 Metabolic Stability Assay (Example 1D); format: in vitro ADME; details: CD-1 mouse liver S9, 1 μM compound, 1 mg/mL S9 protein, 37° C., NADPH regenerating system, UDPGA, PAPS
Procedure, shortened: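 Compound at 1 μM final (0.1% DMSO) incubated at 37° C with pooled CD-1 mouse liver S9 (1 mg/mL protein) plus NADPH-regenerating system, UDPGA and PAPS. Samples at 0 and 60 min quenched in cold acetonitrile with internal standard; LC-MS/MS analyte/IS peak-area ratios give % remaining at 60 min.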

Cyp1a1 = assay: In Vivo Mouse liver and spleen Cyp1a1 Modulation Assay (Example 1E); design: species or system C57BL/6 mice; details: po, dose 30 mg/kg, with AHR agonist VAG539 30 mg/kg po, qPCR
Description: C57BL/6 mice, female, 6-8 weeks old, weighing approximately 18-20 g were purchased from Shanghai Lingchang Biological Technology Co., Ltd or other certified vendors and used in the studies. Animal husbandry, feeding and health conditions are according to animal welfare guidelines. VAG539 (30 mg/kg, po) was used as AHRagonist, and test compounds were formulated in suitable vehicles, typically 0.5% methylcellulose).
C57BL/6 mice (n=3 per group) were treated with AHR agonist alone or with AHR agonist and test compounds. Animals were sacrificed at 4 or 10 hours after treatment upon which their livers and spleens were collected and subsequently analyzed by qPCR. Normalized fold induction of cyp1a1 was determined by comparing mCYP1A1 and mGAPDH counts (ct) according to: normalized fold=2^−ΔΔCt. The percent inhibition was calculated according to: […]

[4] = Mouse Pharmacokinetic Study (Example 1C); format: in vivo; details: mouse, plasma, CD-1 mice; for Vd: read-out: Vdss
Description: Formulations of compounds set forth in Table 4 were administered intravenously or orally via gavage to CD-1 mice. Typically, at 0.167, 0.5, 1, 2, 4, 6, 12, and 24 hours post-dose, blood was collected and processed to plasma by centrifugation and stored at −80° C. until analysis.
Internal standard was added to each sample prior to protein precipitation with acetonitrile. The precipitates were filtered through a Phree phospholipid removal filter plate and the samples were analyzed by LC/MS/MS. A standard curve was prepared in plasma from typically from 1.0 ng/mL to 3000 ng/mL and processed in the same manner as the samples. Sample analysis was typically performed on a suitable LC/MS/MS system fitted with an analytical UPLC column and compounds eluted from the analytical column with a gradient from 30-95% 0.1% formic acid (v/v) in ACN: 0.1% formic acid (v/v) in water. Mass spectrometric detection of test compound and the internal standard was performed by MRM in positive mode. The pharmacokinetics of each compound were analyzed by Phoenix WinNonlin software (Pharsight, St. Louis, Mo.) via non-compartmental analysis.

[5] = 4 h, read-out: Cyp1a1 inhibition, Liver, 4 h
[6] = 4 h, read-out: Cyp1a1 inhibition, Spleen, 4 h

- IC50 (AHR [1]): < 500 nM
- IC50 (AHR [2]): 1000 to 1500 nM
Structure (SMILES): CC(C)c1n[nH]c2c(NCCc3c[nH]c4ccccc34)nc(-c3cncc(F)c3)nc12 [I-1, 5-(5-Fluoro-3-pyridyl)-N-[2-(1H-indol-3-yl)ethyl]-3-isopropyl-1H-pyrazolo[4,3-d]pyrimidin-7-amine]

- Mouse S9 Stability: % Remaining After 60 Minutes [3]: 0%
- IC50 (AHR [1]): < 500 nM
- IC50 (AHR [2]): < 500 nM
Structure (SMILES): CC(C)n1ccc2c(NCCc3c[nH]c4ccccc34)nc(-c3cncc(F)c3)nc21 [I-4, 2-(5-Fluoro-3-pyridyl)-N-[2-(1H-indol-3-yl)ethyl]-7-isopropyl-pyrrolo[2,3-d]pyrimidin-4-amine]

- IC50 (AHR [1]): 500 to 1000 nM
- IC50 (AHR [2]): 1000 to 1500 nM
Structure (SMILES): CC(C)n1cnc2c(NCCc3c[nH]c4cnccc34)nc(-c3cncc(F)c3)nc21 [I-9, 2-(5-Fluoro-3-pyridyl)-9-isopropyl-N-[2-(1H-pyrrolo[2,3-c]pyridin-3-yl)ethyl]purin-6-amine]

- IC50 (AHR [1]): < 500 nM
- IC50 (AHR [2]): 500 to 1000 nM
Structure (SMILES): CC(C)c1ccc2c(NCCc3c[nH]c4ccccc34)nc(-c3cncc(F)c3)nn12 [I-19, N-(2-(1H-Indol-3-yl)ethyl)-2-(5-fluoropyridin-3-yl)-7-isopropylpyrrolo[2,1-f][1,2,4]triazin-4-amine]

- IC50 (AHR [1]): < 500 nM
- IC50 (AHR [2]): 1000 to 1500 nM
Structure (SMILES): CC(C)c1csc2c(NCCc3c[nH]c4ccccc34)nc(-c3cncc(F)c3)nc12 [I-3, N-(2-(1H-indol-3-yl)ethyl)-2-(5-fluoropyridin-3-yl)-7-isopropylthieno[3,2-d]pyrimidin-4-amine]

- IC50 (AHR [1]): < 500 nM
Structure (SMILES): CC(=O)c1cnn2c(NCCc3c[nH]c4ccccc34)cc(-c3cncc(F)c3)nc12 [I-57, 1-[5-(5-Fluoro-3-pyridyl)-7-[2-(1H-indol-3-yl)ethylamino]pyrazolo[1,5-a]pyrimidin-3-yl]ethanone]
- inhibition at 30 mg/kg (Cyp1a1; [5]): 77%
- inhibition at 30 mg/kg (Cyp1a1; [6]): 66%

- Mouse S9 Stability: % Remaining After 60 Minutes [3]: 7%
- bioavailability ([4]; po, 30 mg/kg): 6%
- AUC(0-inf) ([4]; iv, 3 mg/kg): 1140 ng·h/mL
- AUC(0-t) ([4]; iv, 3 mg/kg): 1140 ng·h/mL
- clearance ([4]; iv, 3 mg/kg): 43.9 mL/min/kg
- half-life ([4]; iv, 3 mg/kg): 37.2 min
- Vd ([4]; iv, 3 mg/kg): 1.4 L/kg
- AUC(0-inf) ([4]; po, 30 mg/kg): 671 ng·h/mL
- AUC(0-t) ([4]; po, 30 mg/kg): 649 ng·h/mL
- Cmax ([4]; po, 30 mg/kg): 713 ng/mL
- Tmax ([4]; po, 30 mg/kg): 0.2 h
- half-life ([4]; po, 30 mg/kg): 129 min
- IC50 (AHR [1]): < 500 nM
Structure (SMILES): Fc1cncc(-c2cc(NCCc3c[nH]c4ccccc34)n3nccc3n2)c1 [I-103, 5-(5-Fluoro-3-pyridyl)-N-[2-(1H-indol-3-yl)ethyl]pyrazolo[1,5-a]pyrimidin-7-amine]
- inhibition at 30 mg/kg (Cyp1a1; [5]): 94%
- inhibition at 30 mg/kg (Cyp1a1; 10 h, read-out: Cyp1a1 inhibition, Liver, 10 h): 0%

- IC50 (AHR [1]): > 1500 nM
- IC50 (AHR [2]): < 500 nM
Structure (SMILES): CC(C)n1cnc2c(NCCc3c[nH]c4cccnc34)nc(-c3cncc(F)c3)nc21 [I-7, 2-(5-Fluoro-3-pyridyl)-9-isopropyl-N-[2-(1H-pyrrolo[3,2-b]pyridin-3-yl)ethyl]purin-6-amine]

- IC50 (AHR [1]): < 500 nM
Structure (SMILES): CC(C)c1cnn2c(NCCc3c[nH]c4ccccc34)cc(-c3cccnc3)nc12 [I-46, N-[2-(1H-Indol-3-yl)ethyl]-3-isopropyl-5-(3-pyridyl)pyrazolo[1,5-a]pyrimidin-7-amine]
- inhibition at 30 mg/kg (Cyp1a1; [5]): 96%
- inhibition at 30 mg/kg (Cyp1a1; [6]): 94%

- Mouse S9 Stability: % Remaining After 60 Minutes [3]: 0%
- IC50 (AHR [1]): < 500 nM
- IC50 (AHR [2]): < 500 nM
Structure (SMILES): CC(C)n1cnc2c(NCCc3c[nH]c4ccccc34)nc(-c3cncc(F)c3)nc21 [I-6]

- Mouse S9 Stability: % Remaining After 60 Minutes [3]: 30%
- bioavailability ([4]; po, 30 mg/kg): 17%
- AUC(0-inf) ([4]; iv, 3 mg/kg): 931 ng·h/mL
- AUC(0-t) ([4]; iv, 3 mg/kg): 908 ng·h/mL
- clearance ([4]; iv, 3 mg/kg): 53.7 mL/min/kg
- half-life ([4]; iv, 3 mg/kg): 78.6 min
- Vd ([4]; iv, 3 mg/kg): 3.5 L/kg
- AUC(0-inf) ([4]; po, 30 mg/kg): 1610 ng·h/mL
- AUC(0-t) ([4]; po, 30 mg/kg): 1600 ng·h/mL
- Cmax ([4]; po, 30 mg/kg): 799 ng/mL
- half-life ([4]; po, 30 mg/kg): 201 min
- IC50 (AHR [1]): < 500 nM
Structure (SMILES): Fc1cncc(-c2cc(NCCc3c[nH]c4ccccc34)n3ncc(Br)c3n2)c1 [I-39, 3-Bromo-5-(5-fluoro-3-pyridyl)-N-[2-(1H-indol-3-yl)ethyl]pyrazolo[1,5-a]pyrimidin-7-amine]
- inhibition at 30 mg/kg (Cyp1a1; [5]): 90%
- inhibition at 30 mg/kg (Cyp1a1; [6]): 69%

- IC50 (AHR [1]): < 500 nM
- IC50 (AHR [2]): > 1500 nM
Structure (SMILES): Fc1cncc(-c2nc(NCCc3c[nH]c4ccccc34)c3ccsc3n2)c1 [I-5, N-(2-(1H-indol-3-yl)ethyl)-2-(5-fluoropyridin-3-yl)thieno[2,3-d]pyrimidin-4-amine]

- Mouse S9 Stability: % Remaining After 60 Minutes [3]: 65%
- bioavailability ([4]; po, 30 mg/kg): 51%
- AUC(0-inf) ([4]; iv, 3 mg/kg): 2260 ng·h/mL
- AUC(0-t) ([4]; iv, 3 mg/kg): 2670 ng·h/mL
- clearance ([4]; iv, 3 mg/kg): 14.4 mL/min/kg
- half-life ([4]; iv, 3 mg/kg): 828 min
- Vd ([4]; iv, 3 mg/kg): 13.7 L/kg
- Cmax ([4]; po, 30 mg/kg): 969 ng/mL
- Tmax ([4]; po, 30 mg/kg): 2 h
- half-life ([4]; po, 30 mg/kg): 588 min
- IC50 (AHR [1]): > 1500 nM
Structure (SMILES): CC(C)c1cnn2c(N[C@@H]3CCc4[nH]c5ccccc5c4C3)cc(-c3cncc(F)c3)nc12 [I-75a, (3R)—N-[5-(5-fluoro-3-pyridyl)-3-isopropyl-pyrazolo[1,5-a]pyrimidin-7-yl]-2,3,4,9-tetrahydro-1H-carbazol-3-amine]
- inhibition at 30 mg/kg (Cyp1a1; [5]): 55%

Source: patent US11358969B2, “Indole AHR inhibitors and uses thereof” (Ikena Oncology, Inc., priority 2017, dated 2022)
